“Also recorded” adds a separate entry of the source.
Legend:
OVCAR-3 cells = details: growth inhibition; cited from earlier work
[1] = administered in vivo; cited from earlier work
DLD-1 CRC cells = details: cited from earlier work
LS174T xenografts = LS174T xenografts in SCID mice; format: in vivo, mouse
Protocol: In vivo evaluation of anti-cancer activity in LS174T xenografts—The mouse studies were conducted with the approval of the University of Kentucky Institutional Animal Care and Use Committee (2020-3531). All methods were carried out in compliance with the relevant guidelines and regulations according to protocols. The LS174T cells in exponential growth phase were trypsinized and resuspended in 50% Matrigel (Corning, Glendale, Arizona). Cells (1.2×10^6) were subcutaneously injected on the lower flanks of severe combined immunodeficient mice. The tumor volumes were calculated based on the formula Length×width^2/2. When tumors reached an average volume of 100 mm^3, the mice were divided into control and treatment groups (3 male and 3 female mice/group, two tumors on each mouse). After tumors were established, BAY-876 was given to the mice by gavage feeding to the BAY-876 group at the dose of 3 mg/kg/day. DBI-1 was daily intraperitoneally (i.p.) administered to the DBI-1 group at dose of 40 mg/kg mouse body weight. Mice in the combination treatment group were administered both oral BAY-876 at the dose of 3 mg/kg/day and i.p. DBI-1 at dose of 40 mg/kg mouse body weight. Tumors and mouse weights were measured every three days and the experiment was stopped at day 12. Tumors were isolated and fixed in 10% neutral buffered formalin. Tumor sections were analyzed with H&E and Ki-67 staining at Markey Cancer Center's Biospecimen Procurement and Translational Pathology Shared Resource Facility (BPTP SRF).

Pt2377 cells = assay: Cell proliferation inhibition assay, Pt2377; format: cell-based
Protocol: Cell proliferation inhibition assay-Cell proliferation inhibition assay was performed as previously reported (48). All compounds to be tested were dissolved at 10 mM in DMSO. The cells were seeded into 12-well plates at a density of 40,000 cells per well in 1 mL of culture medium and were cultured overnight at 37° C. Either 1 μL of the compounds or the vehicle control (DMSO) was added to the cells. After 5 days, the medium was removed, and 200 μL of 0.25% trypsin was added. The cells were resuspended in 800 μL phosphate-buffered saline (PBS) and counted with Vi-CELL XR 2.03 (Beckman Coulter, Inc. USA). The ratio R of the number of viable cells in the compound-treated group to the number of viable cells in the DMSO-treated group was called relative growth rate, and the growth inhibition was calculated as (1−R)*100.

[2] = test system: AMPK, mTOR and Wnt signaling; assay: Western blotting of cell signaling pathways in CRC cells; format: cell-based
Protocol: Western blotting-Western blotting was carried out following previously reported procedures (50). Cells were incubated in 6-well plates and were treated with either DMSO or compounds dissolved in DMSO at indicated concentrations. Cells were lysed in 500 μl of lysis buffer: 50 mM HEPES, 100 mM NaCl, 2 mM EDTA, 1% (v/v) glycerol, 50 mM NaF, 1 mM Na3VO4, 1% (v/v) Triton X-100, with protease inhibitors (Sigma, P8340). The cell lysates were centrifuged (18,000×g, 10 min) and then 6× protein loading buffer was added to the suppernatants. The samples were boiled for 3 min and analyzed by standard Western blotting methods with the indicated antibodies.
Western blotting was performed as previously reported procedures (41). Cells were split into 6-well plates and incubated for 24 hours. Either DMSO or compounds dissolved in DMSO at indicated concentrations were added to each well for another 24 hours. Cells were lysed in 500 μL of lysis buffer containing 50 mmol/L HEPES, 100 mmol/L NaCl, 2 mmol/L EDTA, 1% (v/v) glycerol, 50 mmol/L NaF, 1 mmol/L Na3VO4, 1% (v/v) Triton X-100, and protease inhibitors (Sigma, P8340). Cell lysates were centrifuged for 10 minutes (18,000×g), and the supernatants were mixed with 6×protein loading buffer and boiled for 3 minutes. The samples were analyzed by standard Western blotting methods using the appropriate antibodies.

mitochondrial complex I = assay: Mitochondrial ETC complex activity using PMP-permeabilized cells; format: cell-based
Protocol: Mitochondrial ETC complex activity measurements using PMP-Measurements of mitochondrial ETC complex activity were performed using the Agilent Seahorse Assay with XF PMP (Agilent, Santa Clara, CA) according to the manufacturer's instructions. Mitochondrial assay solution (MAS) was prepared with 220 mM mannitol, 70 mM sucrose, 10 mM KH2PO4, 5 mM MgCl2, 2 mM HEPES, 1 mM EGTA, and 0.2% (w/v) fatty acid free BSA. Cells were gen Ly washed with MAS and cell media was replaced with MAS supplemented with 4 mM adenosine diphosphate (ADP), 10 mM pyruvate, and 1 nM PMP. After calibration, the test was prompμLy carried out by measuring baseline with two cycles of 0.5 min mixing, 0.5 min waiting, and 2 min measuring. Following the baseline measurements, DMSO, test compounds or 2 μM rotenone, 10 mM succinate, 2 μM antimycin A, and a combination of 10 mM ascorbate and 100 μM TMPD were sequentially injected. The experiment data were then normalized to cell counts using Biotek Cytation 1 (BioTek Instruments, Winooski, VT, USA).
Mitochondrial ETC complex activity was measured using the Agilent Seahorse Assay with XF permeabilizer (PMP; Agilent) in compliance with the manufacturer's protocol. […] Following calibration, the baseline OCR was measured with cycles of 0.5-minute mixing, 0.5-minute waiting, and 2-minute measuring to perform the test. […]

Row | SMILES | IC50 (OVCAR-3 cells) [nM] | oral availability [1] | IC50 (DLD-1 CRC cells) [nM] | tumor growth (LS174T xenografts; BAY-876 3 mg/kg/day oral, DBI-1 40 mg/kg/day i.p., two weeks) | toxicity based on mice body weight growth rate (LS174T xenografts; BAY-876 3 mg/kg/day, DBI-1 40 mg/kg/day) | inhibition of proliferation of Pt2377 cells (Pt2377 cells) | effects on AMPK (pAMPK, pACC), mTOR (p70S6K, pS6) and Wnt (Axin2, c-Myc) signaling ([2]; 3 μM alone, LS174T cells, 24 hours) | AMPK phosphorylation (activation) ([2]; 3 μM, LS174T CRC cells) | ETC complex inhibited (conclusion of Seahorse assays) (mitochondrial complex I; ETC complex-specific inhibitors and PMP-permeabilized cells) | pyruvate/NADH-linked respiration (mitochondrial complex I; PMP-permeabilized CRC cells)
1 | Cc1c(NC(=O)c2cc(C(N)=O)nc3cc(F)ccc23)c(C(F)(F)F)nn1Cc1ccc(C#N)cc1 [BAY-876, N^4-[1-(4-cyanobenzyl)-5-methyl-3-(trifluoromethyl)-1H-pyrazol-4-yl]-7-fluoroquinoline-2,4-dicarboxamide] | 60 | orally available | 2 | inhibited tumor growth | No significant toxicity | inhibited the proliferation of these cell lines at nanomolar concentrations | – | – | – | –
2 | O=c1c(-c2ccc(Cl)c(Cl)c2)coc2cc(OCCN3CCN(CCO)CC3)ccc12 [DBI-6, 3-(3,4-dichlorophenyl)-7-(2-(4-(2-hydroxyethyl)piperazin-1-yl)ethoxy)-4H-chromen-4-one] | – | – | – | – | – | – | activated AMPK signaling (pAMPK and pACC) and inhibited mTOR signaling (p70S6K and pS6); also recorded: more active than DBI-1 | best activity in AMPK activation | complex I inhibitor | reduced pyruvate/NADH-linked respiration

— patent publication US20250042880A1 (UNIVERSITY OF KENTUCKY RESEARCH FOUNDATION, priority 2021, published 2025)
